# In US20090075309A1, “Bisdeoxycoelenterazine derivatives, methods of use, and BRET2 systems” (priority 2007, published 2009):
# Read-outs that look alike come from different tables or passages of the source.
# Biological target: HT1080 cells stably expressing the GFP2-RLuc8 fusion protein (Renilla reniformis, UniProt P27652, A143M/A55T/C124A/K136R/M185V/M253L/S130A/S287L)
# Details: for intensity of the light signal among the four derivatives: FIG. 3A; for signal half-life (time required for the initial light flux to fall to its half-value): HT1080 GFP2-RLuc8 cells, 60 μM derivatives
# Procedure: The kinetics of the bioluminescent reactions was evaluated by exposing the derivatives to HT1080 cells stably expressing the GFP2-RLuc8 fusion protein and detecting generated light over the course of one hour using cooled charge coupled device camera (FIG. 2).
# Human fibrosracoma cell line HT1080 stably expressing GFP2-RLuc8 fusion protein was grown in Dulbecco's modified Eagle high glucose medium (DMEM, Invitrogen, Carlsbad, Calif.) supplemented with 10% fetal bovine serum (FBS), 1% penicillin-streptomycin and 500 μg/mL Zeocin™ (Invitrogen). One day before the luminescence study, 10 000 cells were plated in the 96 well plates (Corning Incorporated, Lowell, Mass.). After the removal of the medium 100 μL of the 5 μM solution of BDC in PBS and 60 μM solution of BDC derivatives in DMSO were added and luminescence measured every five minutes during one hour using an open filter setting. The acquisition time was 10 sec. Images were acquired using a cooled charged-coupled device (CCD) camera IVIS 50 (Caliper Life Sciences, Hopkinton, Mass.) and analyzed using Living Image® software version 2.50.1 (Caliper Life Sciences, Hopkinton, Mass.). Region of interest were drawn, and maximum radiance used as the measure of luminescence. The measurements were done in triplicates.
# HT1080 cells stably expressing the GFP2-RLuc8 fusion protein, sequence (P27652 whole entry A55T/C124A/S130A/K136R/A143M/M185V/M253L/S287L, the tested form may be a part): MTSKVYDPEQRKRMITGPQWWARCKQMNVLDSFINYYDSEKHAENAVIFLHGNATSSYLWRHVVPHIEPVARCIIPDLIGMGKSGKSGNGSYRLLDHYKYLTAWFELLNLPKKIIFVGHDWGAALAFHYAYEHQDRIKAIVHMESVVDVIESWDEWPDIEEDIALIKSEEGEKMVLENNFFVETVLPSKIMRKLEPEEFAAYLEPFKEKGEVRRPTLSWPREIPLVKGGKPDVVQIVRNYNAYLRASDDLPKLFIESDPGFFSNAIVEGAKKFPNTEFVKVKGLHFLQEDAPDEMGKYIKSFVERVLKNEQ
Molecule,intensity of the light signal among the four derivatives,signal half-life (time required for the initial light flux to fall to its half-value),rate of the bioluminescent reaction / light signal decay (in words) (over one hour),signal half-life (time required for the initial light flux to fall to its half-value) (5 μM BDC) [min],further results
pivaloyloxymethyl-bisdeoxycoelenterazine [compound 10],lowest,over one,slower bioluminescent reactions compared to their ester counterparts,,"observable signal 24 hours after exposure to the enzyme (24 hours, FIG. 3B): the only observable signal 24 hours after exposure to the enzyme came from it; light signal as share of the maximum intensity (lowest value reached) (over one hour): ≥ 88%; rate of the bioluminescent reaction / light signal decay (in words) (over one hour, listed as pivaloyloxymethyl-BDC): slowest bioluminescent reaction"
"O=c1c(Cc2ccccc2)nc2c(Cc3ccccc3)[nH]c(-c3ccccc3)cn1-2 [BDC, bisdeoxycoelenterazine]",,,,5,loss of initial light emission (at the 15 minute time point): ~75%
"CC(C)(C)OC(=O)Oc1c(Cc2ccccc2)nc2c(Cc3ccccc3)nc(-c3ccccc3)cn12 [compound 8, O-Boc-bisdeoxycoelenterazine]",,,remained fairly stable over one hour,~50,time of peak light emission after exposure to the RLUC8 expressing cells: 15 min
acetoxymethyl-bisdeoxycoelenterazine [compound 9],,over one,slower bioluminescent reactions compared to their ester counterparts,,"delay of the emergence of the maximum light signal compared to the parent BDC: 5 min; rate of the bioluminescent reaction / light signal decay (in words) (over one hour, listed as acetoxymethyl-BDC): slowly decayed with time"
acetyl-bisdeoxycoelenterazine [compound 7],highest light signal,,"fast light signal decay, similar to BDC",,
